# Measured values: US7871628B2, “Peptide mimics of conserved gonococcal epitopes and methods and compositions using them” (University of Massachusetts, priority 1999, dated 2011)
# Where “and” joins values, the source holds several entries; their conditions need not be identical. Identical values can stand only once. Positions of bridges follow the written chain, without caps; N, C: chain ends. No end group written: not given here.
# How the values were obtained:
# mAb 2C7 [1] = assay: Direct ELISA: mAb 2C7 binding to multiple antigen peptides; details: plates coated with MAP 1 μg/well
# Experimental: (§1) Solid phase ELISA was performed to assess the binding of mAb 2C7 to multiple antigen peptides. For direct ELISA, Immulon 1 plates were coated overnight with multiple antigen peptides (1 μg/well) and reacted with varying concentration of mAb 2C7. For inhibition ELISA, plates were coated with purified LOS prepared from N. gonorrhoeae strain 15253 (80 μg/ml) at 37° C. for 3 h. Peptides (linear or MAPs) were diluted in blocking buffer (1% ovalbumin, 0.05% TWEEN-20™ (polysorbate 20), 0.5 M NaCl in PBS) to produce mixtures of varying concentrations. 50 μl-aliquots from each concentration were incubated with 50 μl of mAb 2C7 (stock concentration 0.4 μg/ml diluted in blocking buffer) at 37° C. for 1 h, then 100 μl of mixtures were loaded into microtiter plate wells. […] Purified LOS prepared from gonococcal strain 15253 was used as a positive control in inhibition ELISA.
# mAb 2C7 [2] = assay: Inhibition ELISA: linear peptide or MAPs inhibiting mAb 2C7 binding to LOS; details: for IC50: mAb 2C7 stock 0.4 μg/ml, LOS of strain 15253 coated plates, read-out: half maximal inhibition (IC50) of mAb 2C7 binding to LOS
# Experimental: as §1
# IgG anti-LOS antibody = IgG anti-LOS antibody response in immunized mice; format: in vivo
# Experimental: FIGS. 8A-8D show octa-MAP1-induced IgG anti-LOS antibody responses in mice. (A) Eight mice received a dose of 50 μg of Octa-MAP1 emulsified in Freund's adjuvant on day 0 and again on day 21. (B) Four mice were immunized with purified LOS as a positive control. Mice were immunized with either Freund's adjuvant (C) or an unrelated octa-MAP control peptide (D) as negative controls.
# In FIG. 8(A), eight mice received a dose of 50 μg of Octa-MAP1 emulsified in Freund's adjuvant on day 0 and again on day 21. […] In these mice, IgG anti-LOS titers increased minimally after the first immunization and rose after boosting.
# IgG anti-LOS antibody responses for the responder mice only (from the experiments depicted in FIGS. 8A-8D) are shown in FIG. 10. Antibody response is defined as IgG anti-LOS (mean±SE) greater than 0.4 μg/ml (4 fold above baseline IgG anti-LOS levels).
# IgM anti-LOS antibody = IgM anti-LOS antibody response in immunized mice; format: in vivo; details: responder mice only
# [3] = system: N. gonorrhoeae strain 15253; assay: Complement-mediated bactericidal assay, strain 15253; format: cell-based, Neisseria gonorrhoeae
# Experimental: (§2) A bactericidal assay was performed using (A) mAb 2C7 mice against strain 15253 (positive control) and strain 15253 lgtG (negative control) (4). 25 μg/ml of mAb 2C7 (100 μl in 150 μl of total volume of reaction mixture) mediated 100% killing of strain 15253, and no killing of strain 15253 lgtG. […] FIG. 12 controls included the Complement source without antibody (137.9%±1.0% survival (no killing) for strain 15253, and 132.5%±14.3% survival (no killing) for the lgtG mutant of 15253).
# (§3) Depicted in FIG. 12 is a graph showing survival of N. gonorrhoeae strain 15253 and its lgtG mutant (2C7 epitope negative) (4) exposed to mouse immune serum (67% final mouse immune serum concentration by volume) plus added human complement obtained from normal human donors (17% final human complement concentration by volume).
# A standard bactericidal assay was performed to assess complement-mediated bactericidal activity in mouse sera (11). In this assay, mouse serum (67% final volume) (from various mice immunized or not as described below) was incubated with approximately 2.5×10^3 bacteria suspended in Morse A media (33) in the presence of human complement (17% final volume). The reaction mixture was then shaken continuously at 37° C. for 30 minutes. Aliquots of the reaction mixture were then inoculated onto chocolate agar plates at time 0 and 30 minutes. Survival was expressed as the percent increase in colonies on the plate at 30 minutes, compared to those on the plate at 0 minutes. Greater than 100% survival in the assay indicates growth during the 30-minute incubation period.
# [4] = system: N. gonorrhoeae strain 15253 lgtG; assay: Complement-mediated bactericidal assay, strain 15253 lgtG mutant (2C7 epitope negative); format: cell-based, Neisseria gonorrhoeae; details: serum of single immunized mouse, 67% serum, 17% human complement
# Experimental: as §2, §3
# Strain 15253 lgtG contains a disrupted allele of lipooligosaccharide (LOS) glycosyl transferase G, which transfers glucose (via an α linkage) onto heptose-2 in the core of LOS (4). The disruption of the lgtG locus results in the loss of 2C7 epitope expression.
# A standard bactericidal assay was performed to assess complement-mediated bactericidal activity in mouse sera (11). […] Survival was expressed as the percent increase in colonies on the plate at 30 minutes, compared to those on the plate at 0 minutes. […]
# mAb 2C7 [5] = assay: Inhibition ELISA: synthetic peptide inhibiting mAb 2C7 binding to LOS
# Experimental: Peptides were diluted in blocking buffer (1% ovalbumin, 0.05% TWEEN-20™ (polysorbate 20), 0.5 M NaCl in PBS) to produce mixtures of varying concentrations (0.1, 0.5 and 1 mg/ml). […] Purified LOS prepared from gonococcal strain 15253 was used as a positive control. A non-reactive 15-mer peptide sequence generated by the above described random peptide library system was used as a negative control peptide [SEQ ID NO:9].
substance,measurement,setting,value
CGPIPVLDENGLFAPGPC [Octa-MAP1],binding to mAb 2C7 in direct ELISA (in words),mAb 2C7 [1],strong binding
same,IC50,mAb 2C7 [2],230 nM
same,IgG anti-LOS antibody concentration in serum of immunized mouse,"IgG anti-LOS antibody; individual mice, pooled bleeds weeks 7-11",5.05 µg/mL and 1.38 µg/mL and 2.50 µg/mL
same,mice with induced IgG anti-LOS antibody response,"IgG anti-LOS antibody; mice immunized day 0 and day 21, Octa-MAP1 50 μg in Freund's adjuvant",three of the eight
same,IgG anti-LOS antibody levels compared with negative control antigens,"IgG anti-LOS antibody; responder mice, 7 and 10 weeks after primary immunization",higher (p<0.001)
same,time of peak IgG anti-LOS response,"IgG anti-LOS antibody; three responder mice, boost at week 3",7 week
same,IgM anti-LOS antibody response (in words),IgM anti-LOS antibody,failed to respond with IgM anti-LOS levels higher than mice immunized with negative control antigens
same,killing of strain 15253,[3]; serum of immunized mouse containing 1.38 μg/ml anti-LOS antibodies,31%
same,killing of strain 15253,[3]; serum of immunized mouse containing 2.50 μg/ml anti-LOS antibodies,74%
same,killing of strain 15253,"[3]; serum of immunized mouse containing 5.05 μg/ml IgG anti-LOS, 67% serum, 17% human complement, 30 min",92%
same,survival of strain 15253,"[3]; serum of single immunized mouse (pooled bleeds weeks 7-11), 67% serum, 17% human complement, 30 min",8%
same,killing/survival of strain 15253 lgtG (in words),[4],survived fully
CGPIPVLDENGLFAPGPC [Tetra-MAP1],binding to mAb 2C7 in direct ELISA (in words),mAb 2C7 [1],strong binding
same,IC50,mAb 2C7 [2],1260 nM
"CKSNPIHIIKNRRNIPC (disulfide 1-17 (inferred)) [negative control peptide, reference compound]",inhibition of binding of 2C7 mAb to purified LOS coated plate (in words),"mAb 2C7 [5]; peptide 0.1, 0.5 and 1 mg/ml",did not inhibit binding
IPVLDENGLFAP [PEP1],percentage inhibition of mAb 2C7 binding to LOS,mAb 2C7 [5]; peptide 0.1 mg/ml,17%
same,percentage inhibition of mAb 2C7 binding to LOS,mAb 2C7 [5]; peptide 0.5 mg/ml,77%
same,percentage inhibition of mAb 2C7 binding to LOS,mAb 2C7 [5]; peptide 1.0 mg/ml,91%
"control MAP: control multiple antigen peptide(s), each antigen SEQ ID NO: 12 (CGPEARDEGTITLERGPC; cysteine pairing not given here; also: multiple antigen peptide on lysine core) [reference compound]",binding to mAb 2C7 in direct ELISA (in words),mAb 2C7 [1],no binding
same,inhibition of mAb 2C7 binding to LOS (in words),mAb 2C7 [2],no significant inhibition
linear PEP1: linear PEP1 peptide compared with the MAPs in inhibition ELISA (IPVLDENGLFAP),IC50,mAb 2C7 [2],55000 nM
"unrelated octa-MAP control peptide: unrelated octa-MAP negative control, each antigen SEQ ID NO: 12 (CGPEARDEGTITLERGPC; cysteine pairing not given here; also: octa-MAP on lysine core) [reference compound]",IgG anti-LOS response (in words),IgG anti-LOS antibody; immunized mice,weak or no IgG anti-LOS responses
same,killing of strain 15253 (in words),"[3]; serum of single immunized mouse, 67% serum, 17% human complement",did not kill either strain
same,killing/survival of strain 15253 lgtG (in words),[4],did not kill either strain
